The values that follow come from ChEMBL document CHEMBL5137119, “Total Syntheses and Antibacterial Evaluations of Neocyclomorusin and Related Flavones” (2022).

In brackets after ≈: the same amount, converted by molar mass.

Common to all, as to format: functional
Experiment [1] concerns Bacillus subtilis. Nature of the experiment: Antibacterial activity against Bacillus subtilis ATCC 11774 assessed as inhibition of bacterial growth incubated for 24 hrs by optical density based analysis.
Experiment [2] concerns Staphylococcus epidermidis. Nature of the experiment: Antibacterial activity against Staphylococcus epidermidis ATCC 51625 assessed as inhibition of bacterial growth incubated for 24 hrs by optical density based analysis.
The test system of experiment [3] is Escherichia coli. As to the kind of experiment: Antibacterial activity against Escherichia coli ATCC 25922 assessed as inhibition of bacterial growth incubated for 24 hrs by optical density based analysis.
The subject of experiment [4] is Staphylococcus aureus. As to the kind of experiment: Antibacterial activity against Staphylococcus aureus ATCC 25923 assessed as inhibition of bacterial growth incubated for 24 hrs by optical density based analysis.
For experiment [5], the system named is Staphylococcus aureus. Nature of the experiment: Antibacterial activity against Staphylococcus aureus assessed as inhibition of bacterial growth.
Experiment [6] concerns Escherichia coli. As to the kind of experiment: Antibacterial activity against Escherichia coli assessed as inhibition of bacterial growth incubated for 18 hrs by p-iodonitrotetrazolium chloride dye based colorimetric assay.
Experiment [7] concerns Klebsiella aerogenes. Nature of the experiment: Antibacterial activity against Enterobacter aerogenes assessed as inhibition of bacterial growth incubated for 18 hrs by p-iodonitrotetrazolium chloride dye based colorimetric assay.
The test system of experiment [8] is Pseudomonas aeruginosa. As to the kind of experiment: Antibacterial activity against Pseudomonas aeruginosa assessed as inhibition of bacterial growth incubated for 18 hrs by p-iodonitrotetrazolium chloride dye based colorimetric assay.
Experiment [9] has as its system Enterobacter cloacae. As to the kind of experiment: Antibacterial activity against Enterobacter cloacae assessed as inhibition of bacterial growth incubated for 18 hrs by p-iodonitrotetrazolium chloride dye based colorimetric assay.
For experiment [10], the system named is Providencia stuartii. As to the kind of experiment: Antibacterial activity against Providencia stuartii assessed as inhibition of bacterial growth incubated for 18 hrs by p-iodonitrotetrazolium chloride dye based colorimetric assay.
Experiment [11] has as its system Klebsiella pneumoniae. Nature of the experiment: Antibacterial activity against Klebsiella pneumoniae assessed as inhibition of bacterial growth incubated for 18 hrs by p-iodonitrotetrazolium chloride dye based colorimetric assay.

For `COc1cc(O)c2c(=O)c3c(oc2c1)-c1ccc(O)cc1OC(C(C)(C)O)C3` (stereo unspecified), the MIC is more than 128 mg/L in experiment [1]; more than 128 mg/L in experiment [2]; more than 128 mg/L in experiment [3]; 128 mg/L (≈ 333 µM) in experiment [4]; 128 mg/L (≈ 333 µM) in experiment [5].

On to `CC1(C)S[C@@H]2[C@H](NC(=O)[C@H](N)c3ccccc3)C(=O)N2[C@H]1C(=O)O` [AMPICILLIN], for which the MIC in experiment [1] is more than 128 mg/L; in [2] it was 128 mg/L (≈ 366 µM); in [3], 64 mg/L (≈ 183 µM); in experiment [4], 4 mg/L (≈ 11.4 µM).

For `CC(C)=CCc1c(-c2ccc(O)cc2O)oc2cc3c(c(O)c2c1=O)C=CC(C)(C)O3` [CUDRAFLAVONE B], the MIC is 16 mg/L (≈ 38.1 µM) in experiment [1], 16 mg/L (≈ 38.1 µM) in [2], more than 128 mg/L in [3] and 4 mg/L (≈ 9.51 µM) in experiment [4].

Take `NC[C@H]1O[C@H](O[C@H]2[C@H](O)[C@@H](O[C@H]3O[C@H](CO)[C@@H](O)[C@H](N)[C@H]3O)[C@H](N)C[C@@H]2N)[C@H](O)[C@@H](O)[C@@H]1O` [KANAMYCIN]: the MIC in experiment [1] worked out at 2 mg/L (≈ 4.13 µM); in experiment [2] it was 1 mg/L (≈ 2.06 µM); in experiment [3], 16 mg/L (≈ 33 µM); in [4], 4 mg/L (≈ 8.26 µM).

For the molecule `CC(C)=CCc1c(-c2ccc(O)cc2O)oc2c3c(cc(O)c2c1=O)OC(C)(C)C=C3` [MORUSIN], the MIC in experiment [1] was 16 mg/L (≈ 38.1 µM); in experiment [2], 8 mg/L (≈ 19 µM); in experiment [3] it was more than 128 mg/L; in experiment [4], 8 mg/L (≈ 19 µM).

Turning to `CC1(C)C=Cc2c(cc(O)c3c(=O)c4c(oc23)-c2ccc(O)cc2OC(C(C)(C)O)C4)O1` (stereo unspecified) [NEOCYCLOMORUSIN], the MIC in experiment [1] was 64 mg/L (≈ 147 µM); in [2], more than 128 mg/L; in [6], 4 mg/L (≈ 9.16 µM); in experiment [7], 4 mg/L (≈ 9.16 µM); in [8] it was 4 mg/L (≈ 9.16 µM); in [3], more than 128 mg/L. In addition, the MIC is 4 mg/L (≈ 9.16 µM) in experiment [9], 64 mg/L (≈ 147 µM) in [4], 4 mg/L (≈ 9.16 µM) in experiment [10] and 4 mg/L (≈ 9.16 µM) in experiment [11].
